Results published in patent US20130288956A1, “COMBINED PHARMACEUTICAL COMPOSITION AS ANTIFUNGAL AGENT” (priority 2010, published 2013).
Numbered stars: 1 amine (or outer) side, 2 acyl side, 3 side chain; on linkers, the order of the positions; unused ones are H or OH. Bridge positions count the residues as written; N and C are the ends. Square brackets hold non-standard residues; d marks the D form. Peptide text beside a SMILES is read from it. * marks the point of attachment. hTyr(3S-OH,4S-OH,3'-OSO3H) = N[C@H](C(=O)O)[C@H](O)[C@@H](O)c1ccc(O)c(OS(=O)(=O)O)c1; Orn(4R-OH,5R-OH) = O=C([C@H](C[C@@H](O)[C@@H](O)N[*:3])N[*:1])[*:2]; Pro(3S-OH,4S-Me) = C[C@H]1CN[C@H](C(=O)O)[C@H]1O; X1 = CCCCCOc1ccc(-c2cc(-c3ccc(C(=O)*)cc3)no2)cc1; Gln(3R-OH) = NC(=O)C[C@@H](O)[C@H](N)C(=O)O; Hyp = O=C(O)[C@@H]1C[C@@H](O)CN1

Experiments:
[1] = system: A. fumigatus strain IFM52108; assay: A. fumigatus respiratory tract infection model; type: in vivo, mice; details: for Combination effects in mouse Aspergillus fumigatus infection model: combination with the test compound of the invention
Experimental: (§1) Female DBA/2N mice (age 8 weeks, Charles River Laboratories Japan, Inc.) were subcutaneously administered 200 mg/kg of 5-fluorouracil 5 or 6 days prior to infection in order to put the mice into a compromised state.
(§2) A. fumigatus strain IFM52108 and A. flavus strain IFM50915 were used.
A liquid containing spores of A. fumigatus strain IFM52108 stored at −80° C. was applied to Potato Dextrose agar medium (PDA, Eiken Chemical Co., Ltd.) followed by static culturing for 5 to 7 days at 35° C. and suspending in sterile physiological saline containing 0.05% Tween 80.
The number of spores was counted using a hemocytometer, and the liquid was diluted with sterile physiological saline containing 0.05% Tween 80 to a concentration of 1.2×10^6 cells/mL to 2.5×10^6 cells/mL to obtain an inoculation fungus liquid.
(§3) 50 μl of inoculation fungus liquid were inoculated into the nasal cavities of 9-week-old mice at 0.3×10^5 cells/mouse to 1.25×10^5 cells/mouse under Ketalar anesthesia.
(§4) 0.1 mL to 0.2 mL of each drug solution (dissolved in sterile physiological saline or 5% glucose solution, or dissolved in sterile physiological saline or 5% glucose solution containing 6.5% dimethylsulfoxide and 3.5% Tween 80) was administered to the individual and combination dose groups either into the peritoneal cavity or into the stomach using a gastric cannula corresponding to the administration route of the drug for 3 to 4 days at the rate of 1 to 2 times per day starting 0.5 hours to 1 hour after inoculation of fungus.
(§5) There were 5 to 9 animals in each group.
(§6) Infection protection results were assessed on survival rate 14 days after infection.

C. tropicalis = assay: In vitro combination effects, checkerboard method by micro dilution (FIC index); type: cell-based, Candida tropicalis; details: C. tropicalis (10 strains); combination use with Test Compound 1
Experimental: (§7) A clinically isolated strain retained by the Medical Mycology Research Center of Chiba University (Code No. IFM) and a clinically isolated strain retained by the Life Science Research Center of Gifu University (Code No. E) were used as Candida and Aspergillus strains.
(§8) Fungus liquid obtained by static culturing at 35° C. for 48 hours in Sabouraud Dextrose liquid medium (SDB, Becton, Dickinson and Co.) was diluted with RPMI 1640 medium (Nissui Pharmaceutical Co., Ltd.) containing 0.165 M 3-(N-morpholino)propanesulfonic acid (MOPS) to prepare a fungus liquid having a fungus concentration of 1×10^3 cells/mL to 2×10^3 cells/mL.
(§9) Test Compound 1 (0.0005 μg/mL to 1.56 μg/mL) in the horizontal rows (12 wells) of a 96-well flat-bottom plate, and an antifungal agent in the form of ravuconazole (0.0015 μg/mL to 6.25 μg/mL), fluconazole (0.008 μg/mL to 32 μg/mL), voriconazole (0.0002 μg/mL to 8 μg/mL), micafungin (0.0005 μg/mL to 0.25 μg/mL), caspofungin (0.0005 μg/mL to 1 μg/mL) or amphotericin B (0.008 μg/mL to 8 μg/mL) in the vertical rows (8 wells) of the flat-bottom plate were prepared by diluting so as to blend together using RPMI 1640 medium containing 0.165 M MOPS to obtain a control group, a single Test Compound 1 group, each one of antifungal agents groups and combination groups of Test Compound 1+each one of antifungal agents.
(§10) The fungus liquids prepared in (1) were inoculated into the wells of 96-well flat-bottom plate containing 20 μL/well to 75 μL/well of the diluted test drug liquids prepared in (2) at 80 μL/well to 125 μL/well, followed by aerobically static culturing for 25 hours to 48 hours at 35° C.
(§11) Combination effects of Test Compound 1 and the antifungal agents were measured with the checkerboard method by micro dilution.
(§12) Interaction between both drugs was assessed by calculating the FIC index using the calculation formula indicated below.
(§13) The FIC index was calculated for each combination of antifungal agent concentrations that inhibited fungal growth, and the minimum value of the resulting FIC index was used as a combination FIC index.
(§14) A combination FIC index of 0.5 or less was evaluated as indicating synergistic action, that of 0.5 to 1 or less was evaluated as indicating additive action, and that of 1 to 4 or less was evaluated as indicating indifferent action.
(§15) FIC Index=(MIC value of drug A during combination use/MIC value of drug A when used alone)+(MIC value of drug B during combination use/MIC value of drug B when used alone) (Calculation Formula)

A. flavus = assay: as above; type: cell-based, Aspergillus flavus; details: A. flavus (4 strains), Table 1
Experimental: as §7
(§16) An Aspergillus strain stored frozen at −80° C., or spores obtained by static culturing at 35° C. for 1 week in Potato Dextrose agar medium (PDA, Eiken Chemical Co., Ltd.) followed by scraping from the container with a metal loop, was diluted with RPMI 1640 medium containing 0.165 M MOPS to prepare a fungus liquid having a fungus concentration of 0.75×10^4 cells/mL to 1.33×10^4 cells/mL.
as §9, §10, §11, §12, §13, §14, §15

C. albicans = assay: as above; type: cell-based, Candida albicans; details: C. albicans (20 strains); combination use with Test Compound 1
Experimental: as §7, §8, §9, §10, §11, §12, §13, §14, §15

A. fumigatus = assay: as above; type: cell-based, Aspergillus fumigatus; details: A. fumigatus (18 strains)
Experimental: as §7, §16, §9, §10, §11, §12, §13, §14, §15

C. glabrata = assay: as above; type: cell-based, Candida glabrata; details: C. glabrata (10 strains); combination use with Test Compound 1
Experimental: as §7, §8, §9, §10, §11, §12, §13, §14, §15

[2] = system: A. flavus strain IFM50915; assay: A. flavus respiratory tract infection model; type: in vivo, mice
Experimental: as §1, §2
A liquid containing spores of A. flavus strain IFM50915 stored at −80° C. was thawed, and the number of spores was counted using a hemocytometer followed by diluting with sterile physiological saline containing 0.05% Tween 80 to a concentration of 0.6×10^6 cells/mL to 1.0×10^6 cells/mL to obtain an inoculation fungus liquid.
as §3, §4, §5, §6

CCCCCOc1ccc(-c2cc(-c3ccc(C(=O)N[C@H]4C[C@@H](O)[C@@H](O)NC(=O)[C@@H]5[C@@H](O)[C@@H](C)CN5C(=O)[C@H]([C@H](O)CC(N)=O)NC(=O)[C@H]([C@H](O)[C@@H](O)c5ccc(O)c(OS(=O)(=O)O)c5)NC(=O)[C@@H]5C[C@@H](O)CN5C(=O)[C@H]([C@@H](C)O)NC4=O)cc3)no2)cc1 [Micafungin, micafungin] (X1-[Orn(4R-OH,5R-OH)]T[Hyp][hTyr(3S-OH,4S-OH,3'-OSO3H)][Gln(3R-OH)][Pro(3S-OH,4S-Me)]; lactam 1-C)
14-day survival rate ([1]; MCFG 1 mg/kg): 0%
14-day survival rate ([1]; MCFG 2 mg/kg): 40%
Combination effects in mouse Aspergillus fumigatus infection model [1]: synergistic combination effects
Ratio indicating Additive effect of combination use with Test Compound 1 (C. tropicalis): 100%
Ratio indicating Antagonistic effect of combination use with Test Compound 1 (C. tropicalis): 0%
Ratio indicating Indifferent effect of combination use with Test Compound 1 (C. tropicalis): 0%
Ratio indicating Synergistic effect of combination use with Test Compound 1 (C. tropicalis): 0%
Ratio indicating Additive effect of combination use with Test Compound 1 (A. flavus): 0%
Ratio indicating Antagonistic effect of combination use with Test Compound 1 (A. flavus): 0%
Ratio indicating Indifferent effect of combination use with Test Compound 1 (A. flavus): 0%
Ratio indicating Synergistic effect of combination use with Test Compound 1 (A. flavus): 100%
Ratio indicating Additive effect of combination use with Test Compound 1 (C. albicans): 80%
Ratio indicating Antagonistic effect of combination use with Test Compound 1 (C. albicans): 0%
Ratio indicating Indifferent effect of combination use with Test Compound 1 (C. albicans): 20%
Ratio indicating Synergistic effect of combination use with Test Compound 1 (C. albicans): 0%
Ratio indicating Additive effect of combination use with Test Compound 1 (A. fumigatus): 0%
Ratio indicating Antagonistic effect of combination use with Test Compound 1 (A. fumigatus): 0%
Ratio indicating Indifferent effect of combination use with Test Compound 1 (A. fumigatus): 0%
Ratio indicating Synergistic effect of combination use with Test Compound 1 (A. fumigatus): 100%
Ratio indicating Additive effect of combination use with Test Compound 1 (C. glabrata): 70%
Ratio indicating Antagonistic effect of combination use with Test Compound 1 (C. glabrata): 0%
Ratio indicating Indifferent effect of combination use with Test Compound 1 (C. glabrata): 30%
Ratio indicating Synergistic effect of combination use with Test Compound 1 (C. glabrata): 0%
14-day survival rate ([2]; MCFG 0.25 mg/kg, Table 5): 0%
14-day survival rate ([2]; MCFG 0.5 mg/kg, Table 4): 50%
14-day survival rate ([2]; MCFG 0.5 mg/kg, Table 5): 33.3%
Combined effects in mouse Aspergillus flavus infection model ([2]; combination with the test compound of the invention): synergistic combined effects

C[C@@H](c1ncncc1F)[C@](O)(Cn1cncn1)c1ccc(F)cc1F [Voriconazole, voriconazole]
14-day survival rate ([1]; VRCZ 1 mg/kg): 0%
14-day survival rate ([1]; VRCZ 2 mg/kg): 20%
Combination effects in mouse Aspergillus fumigatus infection model [1]: synergistic combination effects
Ratio indicating Additive effect of combination use with Test Compound 1 (C. tropicalis): 0%
Ratio indicating Antagonistic effect of combination use with Test Compound 1 (C. tropicalis): 0%
Ratio indicating Indifferent effect of combination use with Test Compound 1 (C. tropicalis): 0%
Ratio indicating Synergistic effect of combination use with Test Compound 1 (C. tropicalis): 100%
Ratio indicating Additive effect of combination use with Test Compound 1 (A. flavus): 50%
Ratio indicating Antagonistic effect of combination use with Test Compound 1 (A. flavus): 0%
Ratio indicating Indifferent effect of combination use with Test Compound 1 (A. flavus): 50%
Ratio indicating Synergistic effect of combination use with Test Compound 1 (A. flavus): 0%
Ratio indicating Additive effect of combination use with Test Compound 1 (C. albicans): 75%
Ratio indicating Antagonistic effect of combination use with Test Compound 1 (C. albicans): 0%
Ratio indicating Indifferent effect of combination use with Test Compound 1 (C. albicans): 10%
Ratio indicating Synergistic effect of combination use with Test Compound 1 (C. albicans): 15%
Ratio indicating Additive effect of combination use with Test Compound 1 (A. fumigatus): 28%
Ratio indicating Antagonistic effect of combination use with Test Compound 1 (A. fumigatus): 0%
Ratio indicating Indifferent effect of combination use with Test Compound 1 (A. fumigatus): 67%
Ratio indicating Synergistic effect of combination use with Test Compound 1 (A. fumigatus): 6%
Ratio indicating Additive effect of combination use with Test Compound 1 (C. glabrata): 60%
Ratio indicating Antagonistic effect of combination use with Test Compound 1 (C. glabrata): 0%
Ratio indicating Indifferent effect of combination use with Test Compound 1 (C. glabrata): 10%
Ratio indicating Synergistic effect of combination use with Test Compound 1 (C. glabrata): 30%
